Assay results taken from ChEMBL document CHEMBL1144487 (Bioorg Med Chem, 2007).

Experiments:
[1] = Cytotoxicity against rat NRK 52E cells after 5 days; assay type: cell-based; details: read-out: LC50
[2] = Cytotoxicity against rat K-ras transformed NRK K/1 cells after 5 days; assay type: cell-based; details: NRK K/1, 120 h, read-out: LC50 (the source's name)
[3] = Cytotoxicity against rat H-ras transformed NRK H/1.2 cells after 5 days; assay type: cell-based; details: NRK H/1.2, 120 h, read-out: LC50 (the source's name)
[4] = Cytotoxicity against rat N-ras transformed NRK N/4.2 cells after 5 days; assay type: cell-based; details: NRK N/4.2, 120 h, read-out: LC50 (the source's name)
[5] = Cytotoxicity against mouse 3LL cells after 5 days; assay type: cell-based; details: 120 h, read-out: LC50 (the source's name)
[6] = Toxicity in mouse; assay type: organism-based; details: in vivo
[7] = Differential index, LC50 for rat NRK 52E cells to LC50 for rat K-ras transformed NRK K/1 cells; assay type: ADME, cell-based; details: NRK 52E cells versus K-ras transformed NRK K/1 cells
[8] = Differential index, LC50 for rat NRK 52E cells to LC50 for rat H-ras transformed NRK H/1.2 cells; assay type: ADME, cell-based; details: NRK 52E cells versus H-ras transformed NRK H/1.2 cells
[9] = Differential index, LC50 for rat NRK 52E cells to LC50 for rat N-ras transformed NRK N/4.2 cells; assay type: ADME, cell-based; details: NRK 52E cells versus N-ras transformed NRK N/4.2 cells
[10] = Differential index, LC50 for rat NRK 52E cells to LC50 for mouse 3LL cells; assay type: ADME, cell-based; details: NRK 52E cells versus 3LL cells
Mus musculus [11] = assay: Toxicity in nude mouse at 150 mg/kg/day assessed as death after 8 days; assay type: organism-based; details: in vivo, 192 h
Mus musculus [12] = assay: Toxicity in nude mouse at 300 mg/kg/day assessed as death after 8 days; assay type: organism-based; details: in vivo, 192 h
NRK [13] = assay: Inhibition of tumor growth in CD1 nu/nu mouse implanted with rat K-ras transformed NRK K/1 cells at 150 mg/kg/day, ip after 8 days relative to control; assay type: functional; details: 192 h, route intraperitoneal
NRK [14] = assay: Inhibition of tumor growth in CD1 nu/nu mouse implanted with rat K-ras transformed NRK K/1 cells at 300 mg/kg/day, ip after 8 days relative to control; assay type: functional; details: 192 h, route intraperitoneal
Mus musculus [15] = assay: Toxicity in nude mouse at 10 mg/kg/day after 7 days; assay type: organism-based; details: in vivo, 168 h
Mus musculus [16] = assay: Toxicity in nude mouse at 50 mg/kg/day after 7 days; assay type: organism-based; details: in vivo, 168 h
Mus musculus [17] = assay: Toxicity in nude mouse at 100 mg/kg/day after 7 days; assay type: organism-based; details: in vivo, 168 h
NRK [18] = assay: Inhibition of tumor growth in CD1 nu/nu mouse implanted with rat K-ras transformed NRK K/1 cells at 100 mg/kg/day, ip for 7 days on day 10 relative to control; assay type: functional; details: route intraperitoneal

Row | SMILES | CC50 at 120 h [1] [µM] | CC50 [2] [µM] | CC50 [3] [µM] | CC50 [4] [µM] | CC50 [5] [µM] | MTD [6] [mg/kg] | selectivity ratio [7] | selectivity ratio [8] | selectivity ratio [9] | selectivity ratio [10] | Activity (Mus musculus [11]) | Activity (Mus musculus [12]) | inhibition in vivo at 150 mg/kg/day (NRK [13]) [%] | inhibition in vivo at 300 mg/kg/day (NRK [14]) [%] | Activity (Mus musculus [15]) | Activity (Mus musculus [16]) | Activity (Mus musculus [17]) | inhibition in vivo at 100 mg/kg/day (NRK [18]) [%]
1 | CCCC(=O)NC1=CC(=O)c2ccc(C)nc2C1=O | 2 | > 3.3 | > 3.3 | > 3.3 | 2.5 | < 10 |  |  |  |  |  |  |  |  |  |  |  | 
2 | CC(=O)NC1=CC(=O)c2ccc(-c3nc(C(=O)OCCC(C)C)cc4c3[nH]c3ccccc34)nc2C1=O | 1.62 | 0.09 | 1.42 | 1.5 | 1.69 |  | 18 | 1.1 | 1.1 | 1 | Non-toxic | Non-toxic | 88 |  |  |  |  | 
3 | CC(=O)NC1=CC(=O)c2ccc(C)nc2C1=O | 2.4 | 5.9 | 4.4 |  | 2 | < 10 |  |  |  |  |  |  |  |  |  |  |  | 
4 | CC(=O)NC1=CC(=O)c2ccc(-c3[nH]c(C(N)=O)cc4c5ccccc5nc3-4)nc2C1=O | 0.9 | 0.35 | 0.23 | 0.22 | 0.21 | 400 | 2.5 |  | 4.1 | 4.3 |  |  |  |  |  |  |  | 
5 | CCCCCCCCOC(=O)c1cc2c([nH]c3ccccc32)c(-c2ccc3c(n2)C(=O)C(NC(C)=O)=CC3=O)n1 | > 33 | 0.25 | 7.6 | 9 | > 33 |  | > 132 | > 4.3 | 3.6 |  | Non-toxic | Non-toxic |  | 78 |  |  |  | 
6 | COC(=O)c1[nH]c(-c2ccc3c(n2)C(=O)C(NC(C)=O)=CC3=O)c2nc3ccccc3c-2c1C | 0.9 | 0.1 | 0.7 |  | > 33 |  | 9 | 1.3 |  | < 0.03 |  |  |  |  | Non-toxic | Non-toxic | Non-toxic | 69
7 | CCCC(=O)NC1=CC(=O)c2ccc(C=O)nc2C1=O | 3 | > 3.3 | 3.3 | > 3.3 | 2.5 | < 10 |  |  |  |  |  |  |  |  |  |  |  | 
8 | NC1=CC(=O)c2ccc(-c3[nH]ccc4c5ccccc5nc3-4)nc2C1=O [DECARBOXYDEMETHYLLAVENDAMYCIN] | 0.1 | 0.031 | 0.11 | 0.06 | 0.25 | 400 | 3.2 | 0.9 | 1.6 | 0.4 |  |  |  |  |  |  |  | 
9 | CCCCOC(=O)c1cc2c([nH]c3ccccc32)c(-c2ccc3c(n2)C(=O)C(NC(=O)CCC)=CC3=O)n1 [LAV12] | 0.66 | 0.5 | 0.4 | 0.7 | 2.3 |  | 1.3 | 1.6 | 0.9 | 0.3 |  |  |  |  |  |  |  | 
